Active and inactive are the calls of the source. The calls are words filed in the database; no cut-off is given here.
Columns and labels:
Bacillus subtilis = experiment: Antimicrobial activity against Bacillus subtilis; format: functional, organism-based
Staphylococcus aureus = experiment: Antimicrobial activity against Staphylococcus aureus; format: functional, organism-based
Artemia salina = experiment: Toxicity in Artemia salina; format: organism-based; details: in vivo
[1] = system: Agrobacterium tumefaciens; experiment: Antitumor activity against Agrobacterium tumefaciens-induced crown gall tumor by potato disk assay; format: functional

SMILES: CC(=O)/C=C/C1=CC[C@@H]2[C@H](C)C(=O)O[C@@H]2C[C@@H]1C
- Activity (Bacillus subtilis): inactive
- Activity (Staphylococcus aureus): inactive

SMILES: C=C1C(=O)O[C@@H]2CC(=C)[C@@H]3CC=C(C)[C@@H]3C[C@H]12 [GUAIANOLIDE ZINIOLIDE]
- LC50 (Artemia salina): 14 ppm
- inhibition (INH) [1]: 49%

From ChEMBL document CHEMBL1158950, “New Sesquiterpenes from Xanthium catharticum” (J Nat Prod, 1991)
